Data set [1] can be described thus: Incubation in the cecal contents of rats (conversion to RLZ). Type of data set: in vitro ADME, rat. To be noted: for conversion to RLZ in cecal contents (in words): 1 mM, 10% cecal contents, anaerobic. How it is done: (§1) Male Sprague-Dawley rats (250–260 g) were euthanized using CO2 gas, collecting the intestinal tract contents separately from the small intestine and cecum. The cecal contents were collected in an atmospheric bag (AtmosBag, Sigma, St. Louis, MO, USA) filled with N2 gas. The contents were suspended in pH 6.8 isotonic phosphate buffer (20%, w/v). To 5 mL of the cecal and small intestinal suspensions, each solution (5 mL) of RAS, SAR, and SGR (2.0 mM) dissolved of pH 6.8 isotonic phosphate buffer was added, and then incubated at 37 °C. Incubation with the cecal contents was conducted in the bag filled with N2 gas. A 0.5 mL portion of the mixtures was transferred to a microtube, followed by centrifugation at 10,000× g at 4 °C for 10 min. Supernatants (0.3 mL) were subjected to extraction with EA (0.3 mL) and subsequent centrifugation at 10,000× g at 4 °C for 7 min. The organic layer (0.2 mL) transferred to a new microtube was evaporated, followed by the addition of mobile phase A (0.2 mL).

Data set [2] is described as follows: Distribution coefficient (log D6.8), 1-octanol/pH 6.8 isotonic phosphate buffer. Type of data set: physicochemical. The settings on record: 1-octanol/isotonic phosphate buffer (pH 6.8). How it is done: To measure distribution coefficients of test compounds in 1-octanol/pH 6.8 isotonic phosphate buffer system, 1-octanol and pH 6.8 isotonic phosphate buffer was pre-saturated with each other. […] Distribution of test compounds in the organic phase/aqueous phase was determined by quantifying the concentration of each test compound in the organic or aqueous phase using a UV-Vis spectrophotometer (Shimadzu, Tokyo, Japan) at 263 nm. The following equation was employed to calculate the distribution coefficients (log D6.8). In the equation, CO is the initial concentration of a compound in the 1-octanol phase or aqueous phase; Cw is the equilibrium concentration of a compound in the aqueous phase; and COc is the equilibrium concentration of a compound in 1-octanol: log D6.8=log(COc/CW)=log(COc/(CO−COc]

Data set [3] in a line: Incubation in the small intestinal contents of rats. The format is in vitro ADME. The settings on record: rat small intestinal contents; for release of RLZ in the small intestinal contents: Supplementary Figure S2; for change in concentration in small intestinal contents: 12 h. How it is done:
as §1

A short description of data set [4]: RLZ concentration in blood (plasma) after oral administration. Type of data set: in vivo, Sprague-Dawley rats. As for the experimental part: (§2) The plasma (0.25 mL) was extracted with EA (0.7 mL), and the organic layer (0.5 mL) was evaporated and dissolved in mobile phase A or B (0.1 mL). After filtration through a membrane filter (0.45 μm), the filtrate (20 μL) was injected to HPLC. To determine the concentrations of SAR and RAS in the blood, MeOH (0.9 mL) was added to the plasma (0.1 mL) and centrifuged at 10,000× g at 4 °C for 10 min. After filtration of the supernatants through a membrane filter (0.45 μm), the filtrate (20 μL) was injected to HPLC.

The conditions of data set [5]: cited from earlier work.
For data set [6] the following is noted: 1-octanol/pH 6.8 buffer; cited from earlier work.
The subject of a further data set is GSK3β. The experiment in a line: p-GS level in the inflamed distal colon (Western blot). The format is in vivo, Sprague-Dawley rats. The settings on record: oral once daily for 6 days. As for the experimental part: (§3) Experimental colitis was induced in rats as previously described. […] The rats in each group were treated orally once daily, and the medication began three days after the induction of inflammation, and continued for six days. Twenty-four hours after the last medication, the anticolitic effects of drugs were evaluated assessing macroscopic and microscopic indices. Colonic-damage scores (CDS) were assigned using the modified scoring system shown in Supplementary Table S1. Colonic damage was scored using 4 independent observers blinded to the treatment conditions. Myeloperoxidase (MPO) activity was determined in the inflamed distal colon (4 cm) as previously described.
To prepare samples for Western blot analysis, tissue (distal colon) samples (0.2 g) were minced and homogenized in 2.0 mL of pre-chilled radioimmunoprecipitation assay (RIPA) buffer, which was agitated on ice for 0.5 h, and then centrifuged at 10,000× g at 4 °C for 10 min. The centrifuged lysates were subjected to protein quantification using the bicinchoninic acid reagent (Thermo Fisher Scientific, Waltham, MA, USA). […] The Western blot images were quantified using Image Lab software (version 5.2 build 14; Bio-Rad, Hercules, CA, USA). The mean of the quantified values was presented with the Western blot images in the figures (n = 3 for cell experiments, n = 5 for animal experiments).

A short description of data set [7]: Concentration of the conjugates in the blood after oral administration. To be noted: equimolar dose, 4, 8, 12 h, Supplementary Figure S4. Type of data set: in vivo, Sprague-Dawley rats. How it is done:
as §2, with “Male Sprague-Dawley rats fasted for 24 h except for water. […] At 4, 8, and 12 h after the oral treatment, the plasma (0.3 mL) was obtained from the blood samples (collected via cardiac puncture) centrifuged at 10,000× g at 4 °C for 10 min. The” for “The”

In another data set the test system is DNBS-induced rat colitis. The experiment in a line: DNBS-induced rat colitis, anticolitic effects. Type of data set: in vivo, Sprague-Dawley rats. How it is done:
as §3
To prepare samples for Western blot analysis, tissue (distal colon) samples (0.2 g) were minced and homogenized in 2.0 mL of pre-chilled radioimmunoprecipitation assay (RIPA) buffer, which was agitated on ice for 0.5 h, and then centrifuged at 10,000× g at 4 °C for 10 min. The centrifuged lysates were subjected to protein quantification using the bicinchoninic acid reagent (Thermo Fisher Scientific, Waltham, MA, USA). SDS-PAGE on a 7.5 or 10% gel was used for Western blot analysis of tissue lysates. To detect glycogen synthase (GS), phosphorylated GS (p-GS), cyclooxygenase (COX)-2, and inducible nitric oxide synthase (iNOS), anti-GS (Santa Cruz Biotechnology, Dallas, TX, USA), anti-p-GS (Cell Signaling Technology, Danvers, MA, USA), anti-COX-2 (sc-365374, Santa Cruz Biotechnology), and anti-iNOS (NOS-2) antibody (sc-7271, Santa Cruz Biotechnology) were used. SuperSignal chemiluminescence substrate (Thermo Fisher Scientific, Waltham, MA, USA) was used to visualize bands. α-Tubulin (Santa Cruz Biotechnology) was used as a loading control. The Western blot images were quantified using Image Lab software (version 5.2 build 14; Bio-Rad, Hercules, CA, USA). The mean of the quantified values was presented with the Western blot images in the figures (n = 3 for cell experiments, n = 5 for animal experiments).
ELISA kits were used to determine the level of CINC-3 and IL-10 in the inflamed distal colon as described previously. The ELISA was performed according to the manufacturer’s instructions.

The nature of data set [8]: Chemical stability in pH 1.2 and pH 6.8 buffers. The format is physicochemical. To be noted: 0.1 mM, 12 h. As for the experimental part: To test the chemical stabilities of SAR and SGR, the two compounds (0.1 mM) were incubated for 12 h in pH 1.2 HCl-NaCl buffer and pH 6.8 isotonic phosphate buffer, and change in the drug concentrations was monitored using HPLC analysis.

For another data set, the system named is Caco-2 cell monolayer. Briefly: Cell permeability assay using Caco-2 monolayers. The format is in vitro ADME. To be noted: 500 µM apical, up to 24 h, compared with RAS. As for the experimental part:
Caco-2 cells (4 × 10^5 per insert) were seeded in Transwell 6-well inserts with a pore size of 0.4 μm (SPL Inc., Houston, TX, USA). DMEM containing 1% penicillin/streptomycin was added to the basolateral (3.0 mL) and apical (insert) compartments (2.0 mL). The cells were grown until the cell monolayer’s transepithelial electrical resistance value (EMD Millipore, Billerica, MA, USA) reached 2000 Ω.cm^2. […] At appropriate time intervals, the drug concentration in the basolateral compartment was determined using HPLC.
A general note: Caco-2 cells form a polarised layer with tight junctions and transporters.

Setting [9] is: oral once daily for 6 days, ELISA.
Setting [10] is: SAR L and H doses, dose-dependent, Western blot.

Structures are written as SMILES. Like-named read-outs stand apart in the source and are kept apart here.

On to `N[C@@H](CC(=O)O)C(=O)Nc1nc2ccc(OC(F)(F)F)cc2s1` [AR, N-(L-aspart-1-yl)riluzole], for which the melting point (usually the temperature of the solid-liquid transition) was 163 °C. Also, in data set [1], the “conversion to RLZ in cecal contents (in words)” value (“conversion to RLZ” for short) is “conversion percentage to RLZ was lower than that of SAR”. The pH-dependent lipophilicity (logD) (usually the decadic logarithm of the distribution of all forms, ionised or not, between an organic phase and buffer at a given pH) at 12 h in [2] turned out to be 0.8. Further, in data set [3], the “release of RLZ in the small intestinal contents” value is “released a substantial amount of RLZ”.
Compound `N[C@@H](CCC(=O)O)C(=O)Nc1nc2ccc(OC(F)(F)F)cc2s1` [GR, N-(L-glutam-1-yl)riluzole] returned a log distribution coefficient (logD) at 12 h in data set [2] of 1. Moreover, the “release of RLZ in the small intestinal contents” value in [3] is on record as “released a substantial amount of RLZ”.
Regarding `O=C(O)c1cc(/N=N/c2nc3ccc(OC(F)(F)F)cc3s2)ccc1O` [RAS, reference compound], the “peak blood concentration of RLZ relative to that after oral RLZ” value in [4] (oral, equimolar doses (10 mg/kg RLZ)) is “approximately one-fifth”; in data set [5], “approximately one-fifth”. The “distribution coefficient (log D6.8)” value in [6] is 2.1. Besides, the “level of p-GS in the inflamed colon” value with GSK3β was “substantially diminished”. For the same compound, the “conjugate (prodrug) in the blood” value in data set [7] is reported as “detected”. In addition, the “level of IL-10 in the inflamed colon” value with DNBS-induced rat colitis (setting [9]) was “further augmented”.
Take `O=C(O)CCC(=O)N[C@@H](CC(=O)O)C(=O)Nc1nc2ccc(OC(F)(F)F)cc2s1` [SAR, (N-succinyl-L-aspart-1-yl)riluzole]: the melting point is 202 °C (dec.). Also, the “conversion to RLZ” value in data set [1] was “readily converted to RLZ in a time-dependent manner”. In [1] (cecal contents), the “AR detected during incubation of SAR with the cecal contents” value was “no AR was detected”. Moreover, the “systemic absorption of RLZ (RLZ in blood, in words)” value in data set [4] (oral SAR 19.2 mg/kg) is on record as “barely detectable”. Also, the “maximal plasma concentration of RLZ relative to oral RAS” value in data set [4] (oral, equimolar dose) is listed as “approximately one-seventh”. For the same compound, the “change in concentration in buffer solutions” value in data set [8] was “No significant change”. Further, in the data set with Caco-2 cell monolayer, the “permeation through Caco-2 cell monolayer” value is “less efficient than RAS”. Further, the “level of p-GS in the inflamed colon” value in the data set with GSK3β is “substantially diminished”. Further, the “conjugate (prodrug) in the blood” value in [7] was “not detectable”. This compound showed a log distribution coefficient (logD) at 12 h in data set [2] of -2.1. For the same compound, the “change in concentration in small intestinal contents” value in data set [3] was “No significant change”. The “MPO activity in the inflamed distal colon” value in the data set on DNBS-induced rat colitis (SAR L and H doses, dose-dependent) is “lowered”. The “CINC-3 level in the inflamed distal colon” value in the data set on DNBS-induced rat colitis (SAR L and H doses, dose-dependent, ELISA) is given as “lowered”. Further, in the data set with DNBS-induced rat colitis (setting [10]), the “COX-2 level in the inflamed distal colon” value is given as “lowered” and the “iNOS level in the inflamed distal colon” value is on record as “lowered”. Moreover, in the data set on DNBS-induced rat colitis (SAR even at lower dose vs SSZ 30 mg/kg), the “colonic damage and inflammation compared with SSZ” value is “more effective than SSZ”. The “all anticolitic indices compared with RAS” value in the data set with DNBS-induced rat colitis (equimolar dose (equivalent to 10 mg/kg RLZ)) is on record as “significantly superior to RAS”. Further, the “level of IL-10 in the inflamed colon” value in the data set with DNBS-induced rat colitis (setting [9]) is reported as “further augmented”. The “colonic damage (CDS, H&E staining)” value in the data set with DNBS-induced rat colitis (oral once daily for 6 days, SAR equivalent to 5 (L) and 10 (H) mg/kg RLZ) is “mitigated the pathological state of the inflamed colon at both doses”.
Consider `O=C(O)CCC(=O)N[C@@H](CCC(=O)O)C(=O)Nc1nc2ccc(OC(F)(F)F)cc2s1` [SGR, (N-succinyl-L-glutam-1-yl)riluzole], for which the “conversion to RLZ” value in data set [1] is reported as “resistant to cecal conversion of RLZ”. For the same compound, the “change in concentration in buffer solutions” value in data set [8] is reported as “No significant change”. In addition, the logD at 12 h in [2] is -2. For the same compound, the “change in concentration in small intestinal contents” value in [3] is given as “No significant change”.

(Values after publication PMC10675528 (Pharmaceutics, 2023).)
